Literature values as cited in patent US11297852B2, “Method for treatment or prevention of gill disease” (NUTRECO IP ASSETS B.V., priority 2015, dated 2022).
Read-outs that look alike come from different tables or passages of the source.

How the values were obtained:
amoebae = conditions: in vitro bath treatment at 10 mg/l, used individually
P. perurans = conditions: in feed
AGD [1] = conditions: in feed at 25 mg/kg
AGD [2] = conditions: oral supplementation
[3] = Atlantic salmon
AGD [4] = conditions: oral administration two weeks prior to challenge
[5] = 7 days after P. perurans challenge

| Compound | amoebae numbers (amoebae) | percent of lamella with lesions compared to control fed fish (P. perurans; 14 and 21 days after challenge) | percent of lamella with lesions compared to control fed fish (P. perurans; [5]) | also measured |
| --- | --- | --- | --- | --- |
| CO[C@@H]1[C@@H](OC)[C@H](C)[C@@](O)(CC(=O)O)O[C@H]1[C@H](C)[C@H]1O[C@@]2(CC[C@@](C)([C@H]3CC[C@@](C)([C@@H]4O[C@@H]([C@H]5O[C@](C)(O)[C@H](C)C[C@@H]5C)C[C@@H]4O[C@@H]4C[C@H](OC)[C@@H](OC)[C@H](C)O4)O3)O2)C[C@H](O)[C@H]1C [Maduramycin] | significantly reduced amoebae numbers | no difference | reduced the percent of lamella with lesions | – |
| CC[C@@H](C(=O)[C@@H](C)[C@@H](O)[C@H](C)CCc1ccc(C)c(O)c1C(=O)O)[C@H]1O[C@](CC)([C@H]2CC[C@](O)(CC)[C@H](C)O2)C[C@@H]1C [Lasalocid acid] | significantly reduced amoebae numbers | no difference | reduced the percent of lamella with lesions | – |
| CC[C@@H](C(=O)[C@@H](C)[C@@H](O)[C@H](C)[C@@H]1O[C@@H]([C@@H](CC)C(=O)O)CC[C@@H]1C)[C@H]1O[C@]2(C=C[C@@H](O)[C@]3(CC[C@@](C)([C@H]4CC[C@](O)(CC)[C@H](C)O4)O3)O2)[C@H](C)C[C@@H]1C [Salinomycin] | significantly reduced amoebae numbers | no difference | reduced the percent of lamella with lesions | – |
| Oc1c(Cl)cc(Cl)cc1Sc1cc(Cl)cc(Cl)c1O [Bithionol] | – | – | – | AGD associated lesions (AGD [1]): delay and reduction in intensity |
| c1ccc([C@H]2CN3CCSC3=N2)cc1 [levamisole] | – | – | – | impact on mortality levels (AGD [2]): no significant impact |
| CCOC(=O)[C@@H](N)CS [LCEE, L-cysteine ethyl ester] | – | – | – | mucus viscosity [3]: reduce mucus viscosity; progression of AGD associated gill pathology (AGD [4]): significantly delayed the progression |
| glucans | – | – | – | impact on mortality levels (AGD [2]): no significant impact |
